In PMC10313368 (The Journal of Clinical Investigation, 2023):
Where “and” joins values, the source holds several entries; their conditions need not be identical. Equal entries are not always repeated.

What was measured:
adult mice = conditions: i.p. 5 consecutive days, doses up to 80 mg/kg; cited from earlier work
[1] = system: hiPSC-derived 3D retinal organoids; assay: qPCR of VEGF and ANGPTL4 mRNA in D120 hiPSC-derived retinal organoids in 1% O2; assay type: cell-based, human; conditions: for Vegfa mRNA / Angptl4 mRNA: 12 hours, 20% O2 about 1, replicates; for Vegfa mRNA: Figure 9F; for Angptl4 mRNA: Figure 9G
Procedure: An hiPSC line derived from CD34^+ cord blood was used in this study (A18945, Thermo Fisher Scientific) ([70]). Undifferentiated hiPSCs and derived retinal organoids were routinely tested for mycoplasma contamination by PCR. Cell culture, retinal differentiation, and organoid formation were conducted as previously described ([71]). Retinal organoids at D120 were used for experiments. […]
Reverse transcription and quantitative real-time PCR. Total RNA was isolated from cultured cells or retinas with PureLinkTM RNA Mini Kit (Invitrogen #12183025), and cDNA was prepared with MuLV Reverse Transcriptase (Applied Biosystems). Quantitative real-time PCR was performed with Power SYBR Green PCR Master Mix (Applied Biosystems) and MyiQ Real-Time PCR Detection System (Bio-Rad). Normalization was done using cyclophilin A for mouse tissue and human cell lines. Primers are listed in Supplemental Table 2. […]

[2] = system: HIF transcriptional activity; conditions: cell-based reporter assay; read-out: IC50, inhibition of HIF transcriptional activity; cited from earlier work
HIF-2α = HIF-2α (Homo sapiens, UniProt Q99814); assay: Immunoblot of HIF-2α accumulation in D120 hiPSC-derived retinal organoids in 1% O2; assay type: cell-based; parameters: endogenous in cells; conditions: 1% O2 12 hours, 32-134D
HIF-2α, sequence (Q99814 whole entry): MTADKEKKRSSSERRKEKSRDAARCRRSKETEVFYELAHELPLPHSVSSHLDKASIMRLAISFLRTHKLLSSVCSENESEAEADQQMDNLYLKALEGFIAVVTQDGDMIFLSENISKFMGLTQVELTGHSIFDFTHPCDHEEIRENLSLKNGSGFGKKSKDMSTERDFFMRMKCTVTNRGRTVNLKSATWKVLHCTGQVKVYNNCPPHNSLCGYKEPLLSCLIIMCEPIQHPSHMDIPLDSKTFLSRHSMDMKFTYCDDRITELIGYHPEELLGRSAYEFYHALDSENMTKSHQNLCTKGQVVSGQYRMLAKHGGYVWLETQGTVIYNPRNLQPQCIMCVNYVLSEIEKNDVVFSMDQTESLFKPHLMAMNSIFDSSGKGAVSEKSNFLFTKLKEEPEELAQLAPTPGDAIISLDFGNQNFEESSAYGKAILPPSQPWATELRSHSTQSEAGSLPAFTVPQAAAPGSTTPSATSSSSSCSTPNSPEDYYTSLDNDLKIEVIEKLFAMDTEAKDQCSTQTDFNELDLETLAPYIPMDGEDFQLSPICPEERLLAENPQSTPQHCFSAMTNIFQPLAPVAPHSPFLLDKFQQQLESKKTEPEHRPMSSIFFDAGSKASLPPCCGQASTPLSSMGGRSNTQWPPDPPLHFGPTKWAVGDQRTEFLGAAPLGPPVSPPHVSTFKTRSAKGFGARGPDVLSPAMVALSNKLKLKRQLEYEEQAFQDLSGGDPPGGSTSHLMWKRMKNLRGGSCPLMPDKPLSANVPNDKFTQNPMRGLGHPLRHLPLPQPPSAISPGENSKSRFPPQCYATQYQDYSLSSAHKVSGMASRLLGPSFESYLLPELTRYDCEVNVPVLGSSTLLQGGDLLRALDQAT
Procedure: An hiPSC line derived from CD34^+ cord blood was used in this study (A18945, Thermo Fisher Scientific) ([70]). Undifferentiated hiPSCs and derived retinal organoids were routinely tested for mycoplasma contamination by PCR. Cell culture, retinal differentiation, and organoid formation were conducted as previously described ([71]). Retinal organoids at D120 were used for experiments.
(§1) Immunoblot assays. Cells, neurosensory retina, and D120 retinal organoid lysates were subjected
(§2) to 4–15% gradient SDS/PAGE (Invitrogen). Immunoblot (Western blot or WB) assays were
(§3) performed as previously described (1). […]

C57BL/6 mice = assay: Flash scotopic ERG after a single intraocular injection; assay type: in vivo, mouse; conditions: for A wave / B wave: in µV (unit assumed)
Procedure: Intraocular injections. Intravitreal injections were performed with a PLI-100A Pico-liter Microinjector (Warner Instruments, Harvard Bioscience) using pulled-glass micropipettes. Each micropipette was calibrated to deliver a 1 μl volume on depression of a foot switch. […]
Flash scotopic ERGs. All procedures were performed under dim red light. Mice were dark adapted overnight, anesthetized with ketamine (50 mg/kg) and xylazine (5mg/kg) and pupils were dilated with a topical drop of tropicamide (1%). Scotopic ERG responses were measured using the Celeris ERG stimulator (Diagnosys, Lowell, MA) at flash intensities of 0.025, 0.25, 2.5, 7.96, and 79.06 cd/s/m2. ERGs were measured simultaneously from both eyes with a ground electrode placed into the forehead between the eyes and a reference electrode into the hip. […]

HIF-1α = HIF-1α (Homo sapiens, UniProt Q16665); assay: Immunoblot of HIF-1α accumulation in MIO-M1 cells cultured in hypoxia; assay type: cell-based; parameters: endogenous in cells; host or cells: MIO-M1
HIF-1α, sequence (Q16665 whole entry): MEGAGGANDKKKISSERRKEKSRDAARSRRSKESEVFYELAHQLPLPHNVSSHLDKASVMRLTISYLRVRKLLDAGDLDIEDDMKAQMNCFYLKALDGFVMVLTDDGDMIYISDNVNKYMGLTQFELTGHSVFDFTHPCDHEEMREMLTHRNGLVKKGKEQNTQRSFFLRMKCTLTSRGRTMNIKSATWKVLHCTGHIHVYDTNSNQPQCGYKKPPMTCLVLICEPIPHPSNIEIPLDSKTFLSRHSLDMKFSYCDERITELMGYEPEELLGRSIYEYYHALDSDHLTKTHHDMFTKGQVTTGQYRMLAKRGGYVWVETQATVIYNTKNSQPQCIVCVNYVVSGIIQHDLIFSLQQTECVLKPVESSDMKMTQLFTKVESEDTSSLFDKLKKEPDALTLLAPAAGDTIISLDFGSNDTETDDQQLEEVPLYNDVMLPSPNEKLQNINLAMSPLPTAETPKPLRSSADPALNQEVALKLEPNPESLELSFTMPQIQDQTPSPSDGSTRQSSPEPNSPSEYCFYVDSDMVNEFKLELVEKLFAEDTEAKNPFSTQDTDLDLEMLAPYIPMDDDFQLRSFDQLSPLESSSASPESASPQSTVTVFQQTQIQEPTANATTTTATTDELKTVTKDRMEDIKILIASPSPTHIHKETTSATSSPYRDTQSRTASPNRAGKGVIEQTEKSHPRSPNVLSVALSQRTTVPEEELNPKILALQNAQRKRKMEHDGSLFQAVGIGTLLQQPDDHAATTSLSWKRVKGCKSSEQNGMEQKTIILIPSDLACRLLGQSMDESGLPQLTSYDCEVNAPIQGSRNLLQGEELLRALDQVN
Procedure: MIO-M1, HUVECs, and ARPE19 cells were cultured in DMEM with 10% (vol/vol) FBS (Quality Biological) and 1% penicillin/streptomycin (Cellgro). A hypoxic chamber (Coy Laboratory Product Inc.; Two Glove Model) with 5% CO2, 94% N2, and 1% O2 gas concentration at 37°C was used to culture hypoxic cells. The control cells were cultured in an incubator maintained at 37°C, with 21% O2 and 5% CO2. […] Aflibercept was obtained from the Johns Hopkins University Pharmacy.
as §1, §2, §3

Q: For Brc1ccc2c(-c3csc(-c4c[nH]c5c(Br)cccc45)n3)c[nH]c2c1 [32-134D, 4-(6-bromo-1H-indol-3-yl)-2-(7-bromo-1H-indol-3-yl)thiazole], which “systemic tolerability (appearance, behavior, body weight, hemoglobin, hematocrit)” value (adult mice) is on record?
A: well tolerated

Q: And the “expression of HIF-regulated vasoactive mediators (in words)” value ([1]; 1% O2 12 hours, 32-134D)?
A: effectively prevented

Q: And the “Vegfa mRNA” value ([1]; 1% O2+32-134D 1μM)?
A: 2.046 and 2.085 and 1.848

Q: What about the “Angptl4 mRNA” value ([1]; 1% O2+32-134D 1μM) of the same molecule?
A: 5.344 and 5.73 and 5.861

Q: And the “Vegfa mRNA” value ([1]; 1% O2+32-134D 10μM)?
A: 0.2069 and 0.1725 and 0.1726

Q: And the “Angptl4 mRNA” value ([1]; 1% O2+32-134D 10μM)?
A: 0.1373 and 0.1287 and 0.1338

Q: And the IC50 [2]?
A: < 4 µM

Q: And the “accumulation of HIF-2α protein” value (HIF-2α)?
A: effectively prevented accumulation

Q: And the “retinal toxicity on ERG” value (C57BL/6 mice; 32-134D 70, 140, 210, 350 ng single intraocular injection, up to 5 weeks)?
A: did not observe any evidence of retina toxicity

Q: And the A wave (C57BL/6 mice; DAY7, flash 0.25, 140NG)?
A: 84.49 and 88.87

Q: And the A wave (C57BL/6 mice; DAY7, flash 2.5, 140NG)?
A: 138.4 and 109.3

Q: What about the A wave (C57BL/6 mice; DAY7, flash 7.96, 140NG) of the same molecule?
A: 181.6 and 123.7

Q: And the B wave (C57BL/6 mice; DAY7, flash 7.96, 140NG)?
A: 337.9

Q: And the B wave (C57BL/6 mice; DAY7, flash 79.06, 140NG)?
A: 327.7

Q: What about the B wave (C57BL/6 mice; DAY14, flash 0.025, 70NG) of the same molecule?
A: 149.2 and 168.6 and 209.2 and 152.4 and 190.2 and 184.53 and 268.4

Q: And the B wave (C57BL/6 mice; DAY14, flash 0.025, 140NG)?
A: 158.1

Q: And the A wave (C57BL/6 mice; DAY14, flash 0.25, 70NG)?
A: 69.71 and 75.03 and 99.56 and 75.32 and 55.14 and 80.45 and 95.29

Q: And the B wave (C57BL/6 mice; DAY14, flash 0.25, 70NG)?
A: 204.5 and 293.7 and 273.9 and 206.4 and 256.8 and 214.7 and 313

Q: And the A wave (C57BL/6 mice; DAY14, flash 0.25, 140NG)?
A: 76.62 and 123.2

Q: What about the B wave (C57BL/6 mice; DAY14, flash 0.25, 140NG) of the same molecule?
A: 209.6

Q: And the A wave (C57BL/6 mice; DAY14, flash 2.5, 70NG)?
A: 116.4 and 108.2 and 136.4 and 117.2 and 152.87 and 100.6 and 158.9

Q: And the B wave (C57BL/6 mice; DAY14, flash 2.5, 70NG)?
A: 215 and 216 and 281.6 and 293.7 and 254.6 and 294.3 and 388.9

Q: And the A wave (C57BL/6 mice; DAY14, flash 2.5, 140NG)?
A: 128 and 175.3

Q: What about the B wave (C57BL/6 mice; DAY14, flash 2.5, 140NG) of the same molecule?
A: 257.2

Q: What about the A wave (C57BL/6 mice; DAY14, flash 7.96, 70NG) of the same molecule?
A: 135.7 and 102.5 and 159.1 and 157 and 172.6 and 118.4 and 175.8

Q: And the B wave (C57BL/6 mice; DAY14, flash 7.96, 70NG)?
A: 256.6 and 296.2 and 276.2 and 330.1 and 232.5 and 333.4 and 391

Q: And the A wave (C57BL/6 mice; DAY14, flash 7.96, 140NG)?
A: 138.7 and 208.7

Q: What about the B wave (C57BL/6 mice; DAY14, flash 7.96, 140NG) of the same molecule?
A: 262.8

Q: What about the A wave (C57BL/6 mice; DAY14, flash 79.06, 70NG) of the same molecule?
A: 161.6 and 123.9 and 177.3 and 180.4 and 182.2 and 135.3 and 174.3

Q: What about the B wave (C57BL/6 mice; DAY14, flash 79.06, 70NG) of the same molecule?
A: 232.9 and 293.2 and 237.9 and 340.7 and 256.5 and 324.6 and 372.7

Q: And the A wave (C57BL/6 mice; DAY14, flash 79.06, 140NG)?
A: 168.4 and 191

Q: And the B wave (C57BL/6 mice; DAY14, flash 79.06, 140NG)?
A: 300.7

Q: What about the B wave (C57BL/6 mice; DAY21, flash 0.025, 140NG) of the same molecule?
A: 129.1

Q: And the A wave (C57BL/6 mice; DAY21, flash 0.25, 70NG)?
A: 76.13 and 75.12 and 97.06 and 99.13 and 63.13 and 91.99 and 97.31

Q: What about the B wave (C57BL/6 mice; DAY21, flash 0.25, 70NG) of the same molecule?
A: 236.1 and 170.7 and 170.8 and 248.9 and 189.8 and 286.3 and 297.9

Q: What about the B wave (C57BL/6 mice; DAY21, flash 0.25, 140NG) of the same molecule?
A: 175.7

Q: What about the A wave (C57BL/6 mice; DAY21, flash 2.5, 70NG) of the same molecule?
A: 112.6 and 110.6 and 152.6 and 169.8 and 108.4 and 159.7 and 165.1

Q: And the B wave (C57BL/6 mice; DAY21, flash 2.5, 70NG)?
A: 298.7 and 211.6 and 203 and 296 and 196.2 and 332.2 and 364.3

Q: And the A wave (C57BL/6 mice; DAY21, flash 7.96, 70NG)?
A: 105.9 and 120.3 and 162.9 and 176.2 and 125.7 and 175.1 and 172

Q: And the B wave (C57BL/6 mice; DAY21, flash 7.96, 70NG)?
A: 315.1 and 232.4 and 223 and 328.4 and 215.9 and 350.1 and 374.6

Q: And the A wave (C57BL/6 mice; DAY21, flash 7.96, 140NG)?
A: 126.8 and 195.8

Q: What about the A wave (C57BL/6 mice; DAY21, flash 79.06, 70NG) of the same molecule?
A: 108.1 and 130.3 and 166.3 and 180.2 and 139.8 and 172.8 and 188

Q: And the B wave (C57BL/6 mice; DAY21, flash 79.06, 70NG)?
A: 286.8 and 226.3 and 206.8 and 273.5 and 273.2 and 297.6 and 298.6

Q: And the A wave (C57BL/6 mice; DAY21, flash 79.06, 140NG)?
A: 148.7 and 231

Q: And the A wave (C57BL/6 mice; DAY28, flash 2.5, 140NG)?
A: 148.8 and 128.1

Q: And the A wave (C57BL/6 mice; DAY28, flash 7.96, 70NG)?
A: 118.7 and 202.6 and 114.3 and 192.2 and 119.5 and 102.4 and 173.1

Q: And the A wave (C57BL/6 mice; DAY28, flash 7.96, 140NG)?
A: 168.7

Q: What about the A wave (C57BL/6 mice; DAY28, flash 79.06, 70NG) of the same molecule?
A: 125.3 and 187.6 and 118.9 and 161.8 and 121.28 and 110 and 160.6

Q: And the A wave (C57BL/6 mice; DAY28, flash 79.06, 140NG)?
A: 153

Q: What about the A wave (C57BL/6 mice; DAY35, flash 2.5, 140NG) of the same molecule?
A: 66

Q: And the A wave (C57BL/6 mice; DAY35, flash 79.06, 70NG)?
A: 74.06 and 95.89 and 102 and 95.42 and 92.65 and 81.18 and 82.72

Q: And the B wave (C57BL/6 mice; DAY35, flash 79.06, 70NG)?
A: 112.4 and 198.3 and 140.3 and 150.2 and 167.5 and 220.3 and 163

Q: And the “HIF-1α protein accumulation in response to hypoxia” value (HIF-1α; MIO-M1, 1 μM 32-134D, 1% O2 4 hours)?
A: decreased

Q: What about the “persistence of effect on HIF-1α accumulation after treatment” value (HIF-1α; MIO-M1, 10 μM, hypoxia 1 to 24 hours) of the same molecule?
A: up to 16 hours

Q: What about the IC50 (HIF-1α; MIO-M1 cells cultured in hypoxia, read-out: IC50, HIF-1α protein accumulation (quantitation of immunoblots)) of the same molecule?
A: 3.5 µM
